Where a name gives a salt, the structure may show the parent alone.
What was measured:
[1] = tested on: IL-2 production in Jurkat E6.1 cells; test: Evaluation of IL-2 production in human T-cell leukemia cell line Jurkat E6.1 (TCR stimulation anti-CD3/anti-CD28); assay type: cell-based; conditions: Jurkat E6.1, 24 h, concentration at which IL-2 increased to 10 times the solvent control, Jurkat E6.1, anti-CD3/anti-CD28, 24 hours
Procedure: Test Example 2. Evaluation of Il-2 Production in Human T-Cell Leukemia Cell Line Jurkat E6.1
The effect of the test compound on the IL-2 production by T-cell receptor (TCR) stimulation (anti-CD3/anti-CD28) in Jurkat E6.1 cells (ECACC, 88042803) was evaluated.
A 5 μg/mL anti-CD3 antibody (eBioscience, Inc., OKT3 clone) diluted with phosphate buffer saline (PBS) was added to a 96-well plate (Iwaki & Co., Ltd.) at 50 μL/well, and left standing at 4° C. for 12 hours or more to provide an anti-CD3 antibody-coated plate in advance. When the plate was used for experiments, the plate was washed with 200 μL of PBS once, an anti-CD28 antibody (eBioscience, Inc., 28.2 clone) diluted to a concentration of 10 μg/mL with a culture medium (RPMI1640 (Sigma-Aldlich Co. LLC.) containing 10% fetal bovine serum (Hyclone Laboratories, Inc.)) was then added at 10 μL/well, and the plate was used for assay as a culture plate for TCR stimulation.
Subsequently, the test compound was mixed with Jurkat E6.1 cells in such a manner that an intended final concentration was obtained, and the mixture was plated at 90 μL/well so that the number of cells per well was 1×10^5(that is, finally the culture was performed at 1×10^5 cells/100 μL/well). For culture cell conditions, the culture was performed at 37° C. in the presence of 5% CO2 using RPMI1640 medium containing 10% fatal bovine serum.
After 24 hours, the culture supernatant was collected, and IL-2 was quantitatively determined using AlphaLISA human IL2 Immunoassay Research Kit (PerkinElmer, Inc.). The IL-2 measurement was performed under Alpha Screen standard setting conditions (the fluorescence intensity at 570 nm was measured with an excitation wavelength of 680 nm) using EnVision 2104-0010 and EnVision 2104-0020 (PerkinElmer, Inc.). The IL-2 quantitative value of the solvent treatment control was set to 1, and the test compound concentration at which the IL-2 quantitative value of the test compound treatment sample increased to 10 times the IL-2 quantitative value of the control (EC10fold) was calculated by inverse estimation with the aid of Sigmoid-Emax model non-linear regression analysis. […] In the table, Ex represents the number of each Example described below.

B16-F1 cells = test: Evaluation of antitumor effect in syngeneic mouse model bearing mouse melanoma cell line B16-F1; assay type: in vivo; conditions: po, 240 h, C57BL/6J mice bearing B16-F1, read-out: Antitumor effect (relative tumor growth inhibition); for inhibition in vivo at 0.3 mg/kg: 0.3 mg/kg orally once daily for 10 days
Procedure: Test Example 3: Evaluation of Antitumor Effect in Syngeneic Mouse Model Bearing Mouse Melanoma Cell Line B16-F1
A cell suspension liquid prepared by suspending B16-F1 cells (ATCC, CRL-6323) in PBS at 2.0×10^6 cells/mL was subcutaneously inoculated into 5-week-old female mice (C57BL/6J from Charles River Laboratories Japan, Inc.) in a volume of 50 μL. 5 days after the inoculation, the mice were grouped in such a manner that there was substantially no difference in tumor volume between groups, and administration of the test compound was started. The test was conducted with a solvent group and a test compound administration group each having 10 mice. 0.5% methylcellulose (Shin-Etsu Chemical Co., Ltd.) was orally administered to the solvent group, and 0.5% methylcellulose mixed with the test compound was orally administered to the test compound administration group. The administration was performed for 10 days once daily, and the tumor diameter and the body weight were measured twice a week. The following expression was used for calculation of the tumor volume.
[tumor volume (mm^3)]=[tumor major diameter […]]×[tumor minor diameter (mm)]^2×0.5
The relative tumor growth inhibition (%) of the test compound was calculated, where the tumor volume of the solvent group immediately before the start of administration was set to 100% inhibition, and the tumor volume of the solvent group on the day after the last administration was set to 0% inhibition. […] In the table, Ex represents the number of each Example described below.

human recombinant DGK ξ = human recombinant DGK ξ (Homo sapiens (Human), UniProt Q13574); test: Evaluation of DGK ξ inhibitory effect (ADP-Glo Kinase Assay); assay type: biochemical; conditions: ADP-Glo luminescence
Procedure, shortened: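 Enzyme was pre-incubated with compound for 15 min at room temperature in Tris-HCl pH 7.5 with MgCl2, DTT and BSA. The reaction ran 30 min after adding a substrate mix (pre-addition: 150 μM 1-oleoyl-2-acetyl-sn-glycerol, 480 μM phosphatidylserine, 150 μM ATP), with ADP-Glo luminescence read-out. IC50 came from Sigmoid-Emax regression, with solvent as 0% and no-enzyme as 100% inhibition.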

human recombinant DGK ξ, sequence (Q13574 whole entry): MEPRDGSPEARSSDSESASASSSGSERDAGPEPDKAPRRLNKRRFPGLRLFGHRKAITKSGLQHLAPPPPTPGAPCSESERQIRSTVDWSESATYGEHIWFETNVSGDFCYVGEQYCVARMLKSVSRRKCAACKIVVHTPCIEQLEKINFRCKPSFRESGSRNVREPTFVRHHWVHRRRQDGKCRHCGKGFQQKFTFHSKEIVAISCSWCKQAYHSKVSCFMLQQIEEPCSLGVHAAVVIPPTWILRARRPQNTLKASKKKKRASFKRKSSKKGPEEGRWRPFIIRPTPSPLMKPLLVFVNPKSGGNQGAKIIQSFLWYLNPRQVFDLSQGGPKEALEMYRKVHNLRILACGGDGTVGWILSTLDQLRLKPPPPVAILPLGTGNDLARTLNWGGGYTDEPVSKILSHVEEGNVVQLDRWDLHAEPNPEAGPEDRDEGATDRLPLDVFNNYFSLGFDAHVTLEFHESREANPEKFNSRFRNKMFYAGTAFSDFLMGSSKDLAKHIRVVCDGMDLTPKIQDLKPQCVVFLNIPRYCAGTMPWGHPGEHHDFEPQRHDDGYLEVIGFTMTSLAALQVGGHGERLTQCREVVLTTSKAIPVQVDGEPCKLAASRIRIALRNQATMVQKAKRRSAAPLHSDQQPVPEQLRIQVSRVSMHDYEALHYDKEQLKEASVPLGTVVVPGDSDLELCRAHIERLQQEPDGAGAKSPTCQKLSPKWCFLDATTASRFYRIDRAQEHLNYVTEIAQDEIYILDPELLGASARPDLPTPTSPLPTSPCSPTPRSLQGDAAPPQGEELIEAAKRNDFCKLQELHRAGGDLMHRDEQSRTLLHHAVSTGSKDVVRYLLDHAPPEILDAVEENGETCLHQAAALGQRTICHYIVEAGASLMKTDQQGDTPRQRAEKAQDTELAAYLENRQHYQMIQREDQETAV

IC50 (human recombinant DGK ξ) [nM] | SMILES | EC (10-fold increase) [1] [µM] | inhibition in vivo at 0.03 mg/kg (B16-F1 cells; 0.03 mg/kg orally once daily for 10 days) [%] | inhibition in vivo at 0.3 mg/kg (B16-F1 cells) [%]
 | NC[C@@H]1CCCN(c2c(NC(=O)c3ccn(CC(F)F)n3)ccc(Oc3ccccc3F)c2C(F)(F)F)C1 [Example 1, monohydrochloride] | 0.11 | 35 | 
18 | CN1CCN(c2c(NC(=O)c3ccn(CC(F)F)n3)ccc(Oc3ccccc3Cl)c2C(F)(F)F)C[C@@H]1CN [Example 13] | 0.34 |  | 36
20 | CN1CCN(c2c(NC(=O)c3ccn(CC(F)F)n3)ccc(Oc3ccccc3Cl)c2Cl)C[C@@H]1CN [Example 20] | 0.036 |  | 33
45 | N[C@@H]1CCN2CCN(c3c(NC(=O)c4coc(-c5ccnnc5)n4)ccc(Oc4ccccc4F)c3C(F)(F)F)C[C@@H]12 [Example 80] | 0.46 |  | 31

From patent US20240043403A1, “HETEROARYL CARBOXAMIDE COMPOUND” (Astellas Pharma Inc., priority 2020, published 2024)
